Assay results taken from patent publication US11555036B2, “FGFR4 inhibitor, preparation method therefor and pharmaceutical use thereof” (Abbisko Therapeutics Co., Ltd., priority 2016, dated 2023).

Tests used:
[1] = molecular target: FGFR4 (Homo sapiens, UniProt P22455); test: FGFR4 Caliper Assay (in vitro biochemical kinase analysis of FGFR4); conditions: read-out: Enzymatic activity FGFR4 IC50
In short: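 Kinase reaction at 30° C for 40 min in 50 mM HEPES pH 7.5, 16 mM MgCl2, 1 mM DTT, 0.6% DMSO, stopped with EDTA. Phosphorylated and unphosphorylated fluorescent peptides separated by Caliper microfluidic mobility shift. IC50 by non-linear regression of percent inhibition.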

[2] = tested on: Huh7 hepatocellular carcinoma cells; test: FGFR4 cell proliferation experiment, Cell Titer Glo (CTG); type: cell-based; conditions: Homo sapiens, Huh-7, 72 h, HuH-7 cells, 3 days; for IC50: concentration leading to absolute half growth inhibition; for EC50: concentration leading to half maximal growth inhibition
In short: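 Cells treated with 5-fold serial dilutions starting at 10 μM for 3 days at 37° C, 5% CO2. Proliferation/survival quantified as cellular ATP by CellTiter-Glo luminescence.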

Chain of FGFR4 (P22455 22-802): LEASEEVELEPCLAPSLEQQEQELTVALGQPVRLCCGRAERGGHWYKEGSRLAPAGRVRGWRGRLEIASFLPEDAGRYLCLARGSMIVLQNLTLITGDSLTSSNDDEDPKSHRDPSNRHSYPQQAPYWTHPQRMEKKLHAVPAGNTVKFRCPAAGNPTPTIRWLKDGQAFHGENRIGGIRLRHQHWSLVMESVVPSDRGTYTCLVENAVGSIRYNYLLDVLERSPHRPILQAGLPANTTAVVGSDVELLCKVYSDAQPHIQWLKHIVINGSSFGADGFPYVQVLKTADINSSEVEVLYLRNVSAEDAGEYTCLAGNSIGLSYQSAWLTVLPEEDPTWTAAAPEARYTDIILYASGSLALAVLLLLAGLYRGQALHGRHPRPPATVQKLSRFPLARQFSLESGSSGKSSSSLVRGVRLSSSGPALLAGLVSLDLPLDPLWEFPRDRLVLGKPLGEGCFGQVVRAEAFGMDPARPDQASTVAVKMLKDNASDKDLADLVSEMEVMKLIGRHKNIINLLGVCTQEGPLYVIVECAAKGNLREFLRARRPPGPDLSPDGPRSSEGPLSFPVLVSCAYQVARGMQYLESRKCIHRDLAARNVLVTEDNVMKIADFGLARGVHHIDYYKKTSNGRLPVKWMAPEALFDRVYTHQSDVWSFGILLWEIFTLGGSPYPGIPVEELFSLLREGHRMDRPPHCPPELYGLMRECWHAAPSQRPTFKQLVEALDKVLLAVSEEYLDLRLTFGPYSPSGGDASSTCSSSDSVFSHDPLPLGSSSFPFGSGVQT

C=CC(=O)N[C@H]1COC[C@H]1Nc1ncc2cc(-c3c(Cl)c(OC)cc(OC)c3Cl)nc(N3CCC(C)(O)C3)c2n1 (stereo partly drawn) [Example 760, N-((3R,4S)-4-((6-(2,6-dichloro-3,5-dimethoxyphenyl)-8-(3-hydroxy-3-methylpyrrolidin-1-yl)pyrido[3,4-d]py-rimidin-2-yl)amino)tetarhydrofuran-3-yl)acrylamide]
IC50 [1]: 2.9 nM | IC50 [2]: 6.7 nM | EC50 [2]: 5.5 nM

C=CC(=O)N[C@H]1COC[C@H]1Nc1ncc2cc(-c3c(Cl)c(OC)cc(OC)c3Cl)ncc2n1 (racemic) [Example 118, (±)—N-((3R,4S)-4-((6-(2,6-dichloro-3,5-dimethoxyphenyl)pyrido[3,4-d]pyrimidin-2-yl)amino)tetrahydrofuran-3-yl)acrylamide]
IC50 [1]: 80.5 nM | IC50 [2]: 333 nM | EC50 [2]: 179 nM

C=CC(=O)N[C@H]1CCOC[C@H]1Nc1ncc2cc(-c3c(Cl)c(OC)cc(OC)c3Cl)nc(NCC3CC3)c2n1 [Example 501, N-((3S,4S)-3-((8-((cyclopropylmeth-yl)amino)-6-(2,6-dichloro-3,5-dimeth-oxyphenyl)pyrido[3,4-d]pyrimidin-2-yl)amino)tetrahydro-2H-pyran-4-yl)acrylamide]
IC50 [1]: 15.7 nM | IC50 [2]: 49.9 nM | EC50 [2]: 17.8 nM

C=CC(=O)N[C@H]1COC[C@H]1Nc1ncc2cc(-c3c(Cl)c(OC)cc(OC)c3Cl)nc(NCCS(=O)(=O)CC)c2n1 [Example 429, N-((3R,4S)-4-((6-(2,6-dichloro-3,5-di-methoxyphenyl)-8-((2-(ethylsulfonyl)ethyl)amino)pyrido[3,4-d]pyrimidin-2-yl)amino)tetrahydrofuran-3-yl)acryl-amide]
IC50 [1]: 22.4 nM | IC50 [2]: 184 nM | EC50 [2]: 63.2 nM

C=CC(=O)N[C@H]1COC[C@H]1Nc1ncc2cc(-c3c(Cl)c(OC)cc(OC)c3Cl)nc(NCCc3ccccc3)c2n1 [Example 456, N-((3R,4S)-4-((6-(2,6-dichloro-3,5-di-methoxyphenyl)-8-(phenethylamino)pyrido[3,4-d]pyrimidin-2-yl)amino)tetrahydrofuran-3-yl)acrylamide]
IC50 [1]: 82.4 nM | IC50 [2]: 299 nM | EC50 [2]: 163 nM

C=CC(=O)N[C@H]1COC[C@H]1Nc1ncc2cc(-c3c(F)c(OC)cc(OC)c3F)nc(N3CC4CC(C3)O4)c2n1 [Example 769, N-((3R,4S)-4-((8-(6-oxa-3-azabicyclo[3.1.1]heptan-3-yl)-6-(2,6-difluoro-3,5-dimethoxy-phenyl)pyrido[3,4-d]pyrimidin-2-yl)amino)tetrahydrofuran-3-yl)acrylamide]
IC50 [1]: 3.7 nM | IC50 [2]: 10 nM | EC50 [2]: 8.4 nM

C=CC(=O)N[C@H]1COC[C@H]1Nc1cc2cnc(-c3c(Cl)c(OC)cc(OC)c3Cl)cc2cn1 [Example 124, N-((3R,4S)-4-((7-(2,6-dichloro-3,5-dime-thoxyphenyl)-2,6-naphthyridin-3-yl)amino)tetrahydrofuran-3-yl)acrylamide]
IC50 [1]: 61.6 nM | IC50 [2]: 556 nM | EC50 [2]: 303 nM

C=CC(=O)N[C@H]1COC[C@H]1Nc1ncc2cc(-c3cc(OC)cc(OC)c3Cl)nc(-c3cnn(C)c3)c2n1 [Example 761, N-((3R,4S)-4-((6-(2-chloro-3,5-dimeth-oxyphenyl)-8-(1-methyl-1H-pyrazol-4-yl)pyrido[3,4-d]pyrimidin-2-yl)ami-no)tetrahydrofuran-3-yl)acrylamide]
IC50 [1]: 14.3 nM | IC50 [2]: 51.8 nM | EC50 [2]: 20.7 nM

C=CC(=O)N[C@H]1CCOC[C@H]1Nc1ncc2cc(-c3c(F)c(OC)cc(OC)c3F)nc(N3CC(C)(OC)C3)c2n1 [Example 790, N-((3S,4S)-3-((6-(2,6-difluoro-3,5-dimethoxyphenyl)-8-(3-methoxy-3-methylazetidin-1-yl)pyrido[3,4-d]py-rimidin-2-yl)amino)tetrahydro-2H-pyran-4-yl)acrylamide]
IC50 [1]: 8.5 nM | IC50 [2]: 13.6 nM | EC50 [2]: 11.4 nM

C=CC(=O)N[C@H]1COC[C@H]1Nc1ncc2cc(-c3cccc(OC)c3F)nc(NC)c2n1 [Example 770, N-((3R,4S)-4-((6-(2-fluoro-3-meth-oxyphenyl)-8-(methylamino)pyrido[3,4-d]pyrimidin-2-yl)amino)tetrahydro-furan-3-yl)acrylamide]
IC50 [1]: 2410 nM | IC50 [2]: > 10000 nM | EC50 [2]: > 10000 nM
